Results reported in US20090156657A1, “ANTI-INFLAMMATORY COMPOSITION” (Ajinomoto Co., Inc., priority 2006, published 2009).

Key:
[1] = tested on: IBD model mice (IL-10 deficient cell-transplanted SCID mice); conditions: Ikenoue et al. 2005; cited from earlier work
[2] = tested on: NF-κB (p65); experiment: Activation of NF-κB (nuclear translocation of p65) in HAEC stimulated with high glucose; assay type: cell-based, human; conditions: pre-treatment 5 and 10 μM 24 h, 25 mM glucose 2 h, FIG. 1
Method: In the present invention, the term “suppression of NF-κB activation” means suppression of the translocation of NF-κB into the nucleus. The suppression of the translocation of NF-κB into the nucleus can be confirmed by the method described in Example 1. To be specific, a test substance is added to a culture medium of human aortic endothelial cells, the cells are incubated for a predetermined time, the nucleus is extracted from the aforementioned cells stimulated with glucose, and activated NF-κB (p65) translocated into the nucleus is detected. Using the cells before glucose stimulation, wherein NF-κB is not activated, as a negative control and the cells stimulated with glucose and free of addition of a test substance as a positive control, when the detection level of the aforementioned p65 is closer to the negative control than to the positive control, NF-κB activation is evaluated to have been suppressed.
Human aortic endothelial cells (HAEC) were purchased from Clonetics Corp, and the cells cultured for 3-4 passages (37° C., under 5% carbon dioxide gas atmosphere) were used for the experiment. […] Nucleus was extracted from the cells using Nuclear Extract Kit (Active Motif), and then the activated NF-κB (p65) translocated into the nucleus was detected by TransAM NF-κB p65 Kit (Active Motif).

[3] = tested on: VCAM-1 mRNA; experiment: VCAM-1 mRNA expression in HAEC by real-time PCR; assay type: cell-based, human; conditions: 10 μM 24 h, 25 mM glucose 3 h, GAPDH internal standard, FIG. 3A
Method: (§1) HAEC cells pre-treated with 10 μM of CS or FS for 24 hours were stimulated with 25 mM glucose for 3 hours, and total RNA was extracted with Isogenkit (NIPPON GENE CO., LTD.). From 1 μg of RNA, cDNA was synthesized using 100 U/mL of reverse transcriptase (TAKARA BIO INC.) and 0.1 μM of oligo (dT)-adapter (TAKARA BIO INC.) (total volume of reaction mixture; 50 μL) (42° C., 40 minutes). Real-time PCR was performed using 7300 Real Time PCR system (Applied Biosystems Japan Ltd.) and the PCR product was detected by SYBER Green I.
(§2) PCR reaction composition (RT-PCRkit, TAKARA BIO INC.): 12.5 μL Premix Ex Taq, 2.5 μL SYBER Green I, synthesis primer, ROX reference dye, cDNA (corresponding to 20 ng of total RNA), final reaction volume; 25 μL
(§3) Primers having the following sequences were used.
(§4) PCR was conducted under the following conditions.
(§5) thermal denaturation: at 95° C. for 15 seconds, extension reaction: 40 cycles (3 seconds at 95° C., 31 seconds at 60° C.)
(§6) Expression amounts of VCAM-1 and MCP-1 mRNA were calculated using GAPDH as the internal standard.

[4] = tested on: MCP-1 mRNA; experiment: MCP-1 mRNA expression in HAEC by real-time PCR; assay type: cell-based, human; conditions: 10 μM 24 h, 25 mM glucose 3 h, GAPDH internal standard, FIG. 3B
Method: as §1, §2, §3, §4, §5, §6

[5] = tested on: VCAM-1; experiment: VCAM-1 protein expression on HAEC cell membrane (immunostaining); assay type: cell-based, human; conditions: 0.1-10 μM 24 h, 25 mM glucose 4 h, FIG. 4A
Method: (§7) HAEC cells proliferated to confluence in a 96 well microplate were pre-incubated with 0.1-10 μM serotonin derivative for 24 hours, and stimulated with 25 mM glucose for 4 hours. The cell layer was washed with Hanks solution, and then anti-VCAM-1 monoclonal antibody (Becton Dickinson) was added and the cells were incubated at 37° C. for 1 hour. After washing, the cells were incubated with secondary antibody (peroxidase-labeled anti-mouse IgG goat F(ab′)2 fragment; Cappel) for 1 hour. A color development substrate (o-phenylenediamine dihydrochloride) was added and, about 30 minutes later (room temperature), the absorbance (492 nm) of each well was quantified with a microplate reader. The MCP-1 concentration of the medium was quantified with Human MCP-1 Immunoassay Kit (BioSource International).

[6] = tested on: MCP-1; experiment: MCP-1 secretion into medium of HAEC (immunoassay); assay type: cell-based, human; conditions: 0.1-10 μM 24 h, 25 mM glucose 4 h, FIG. 4B
Method: as §7

[7] = tested on: U-937 monocyte cells / HAEC; experiment: Monocyte (U-937) adhesion to HAEC cells; assay type: cell-based, human; conditions: HAEC pre-incubated 5 or 10 μM 24 h, 25 mM glucose 4 h; FIG. 5
Method: HAEC cells proliferated to confluence in a 24 well microplate were pre-incubated with CS and FS (5 or 10 μM each) for 24 hours and stimulated with 25 mM glucose for 4 hours. The cell layer was washed with Hanks solution, and then a suspension (1×10^6/mL, 200 μL) of U-937 monocyte cells (purchased from ATCC) was added, and the mixture was incubated at 37° C. for 30 minutes. After washing again, the cells were fixed with 1% para-formaldehyde and the number of U-937 cells attached onto HAEC was counted under a microscope (20 fields). The experiment was performed 3 times and the results are shown as an average value thereof. An experiment using fluorescence-labeled U-937 cells was also performed. To be specific, U-937 cells were incubated (37° C., 1 hour) in the presence of 10 μM 2′,7′-bis(2-carboxyethyl)-5(6)-carboxyfluorescein acetoxymethylester (BCECF-AM, Molecular Probes) and washed by centrifugation. Fluorescence-labeled U-937 cells (1×10^6/mL) were added to HAEC cells, and the mixture was incubated at 37° C. for 1 hour. The floating U-937 cells were removed, the plate was washed with PBS buffer and treated with 1% Triton X for 2 hours. The fluorescence amount of the attached cells was quantified (Ex. 503 nm, Em. 525 nm) using a fluorescence plate reader (Bio-Rad, Fluoromark).

[8] = tested on: U-937 cells / HAEC; experiment: Migration capability of monocyte (U-937), Transwell system with HAEC; assay type: cell-based, human; conditions: HAEC pre-incubated 5 or 10 μM 24 h, 25 mM glucose 4 h; FIG. 7
Method: The migration capability of monocyte was measured using the Transwell system (pore size 3 μm; BD Biosciences). HAEC cultured on a transwell placed in a 24 well microplate was pre-incubated with 5 or 10 μM serotonin derivative for 24 hours, and stimulated with 25 mM glucose for 4 hours. 200 μL of U-937 cell suspension (10^6 cells/mL) was added to the transwell and the cells were incubated as-is at 37° C. for 2 hours. The number of cells migrated to the lower chamber of the transwell through the membrane was counted under a microscope (20 fields). The experiment was repeated three times, and the results are shown as an average value thereof. An experiment using fluorescence-labeled U-937 cells was also performed. BCECF-AM-labeled U-937 cells were plated in the upper chamber of the transwell and incubated at 37° C. for 2 hours. The cells migrated to the lower chamber through the membrane were collected in 1 mL of PBS buffer and treated with 1% Triton X for 2 hours. The fluorescence derived from the migrated cells was quantified (Ex. 503 nm, Em. 525 nm) using a fluorescence plate reader (Bio-Rad, Fluoromark).

[9] = tested on: TNF-α, IL-1α, IL-1β and IL-6 production; conditions: human peripheral blood monocyte stimulated by LPS; cited from earlier work

Compound	condition (chronic inflammation in the intestine) of the IBD model [1]	nuclear translocation of p65 (activation of NF-κB) [2]	expression amount of VCAM-1 mRNA [3]	expression amount of MCP-1 mRNA [4]	VCAM-1 expression on the cell membrane [5]	MCP-1 secretion into the medium [6]	number of U-937 cells attached onto HAEC (cell count) [7]	number of U-937 cells migrated into subendothelium space (cell count) [8]	concentration inhibiting production of TNF-α, IL-1α, IL-1β and IL-6 at a transcription level [9] [µM]
C[C@]12C=CC(=O)C=C1CC[C@@H]1[C@@H]2[C@@H](O)C[C@@]2(C)[C@H]1CC[C@]2(O)C(=O)CO [prednisolone]	can be improved	–	–	–	–	–	–	–	–
O=C(/C=C/c1ccc(O)cc1)NCCc1c[nH]c2ccc(O)cc12 [CS, N-(p-coumaroyl)serotonin]	–	significantly suppressed	significantly suppressed the increase	significantly suppressed the increase	suppressed the induction of their expressions in a dose-dependent manner	suppressed the induction of their expressions in a dose-dependent manner	decreased the number of attached cells in a serotonin derivative dose-dependent manner	significantly decreased	≥ 50
